Test results published in patent US8796466B2, “Hepatitis C virus inhibitors” (Bristol-Myers Squibb Company, priority 2009, dated 2014).
Where two headings read alike, the source gives them in different places.

Tested on: HCV 1b genotype
Experiment: HCV Replicon assay (HCV 1b genotype)
Assay type: cell-based, Hepatitis C virus
Settings: Hepatitis C virus, HCV 1b genotype replicon
Description: An HCV Replicon assay was utilized in the present disclosure, and was prepared, conducted and validated as described in commonly owned PCT/US2006/022197 and in O'Boyle et. al. Antimicrob Agents Chemother. 2005 April; 49(4):1346-53. Assay methods incorporating luciferase reporters have also been used as described (Apath.com).
HCV-neo replicon cells and replicon cells containing mutations in the NS5A region were used to test the currently described family of compounds. The compounds were determined to have more than 10-fold less inhibitory activity on cells containing mutations than wild-type cells. Thus, the compounds of the present disclosure can be effective in inhibiting the function of the HCV NS5A protein and are understood to be as effective in combinations as previously described in application PCT/US2006/022197 and commonly owned WO/04014852. Further, the compounds of the present disclosure can be effective against the HCV 1b genotype. It should also be understood that the compounds of the present disclosure can inhibit multiple genotypes of HCV. […] In one embodiment, compounds of the present disclosure are inhibitory versus 1a, 1b, 2a, 2b, 3a, 4a, and 5a genotypes.

[1] = Effective 50% inhibitory concentration, read-out: 1b EC50
[2] = class symbol, read-out: Range (EC50 values against HCV 1b)

SMILES | EC50 [1] [nM] | EC50 [2] [nM]
COC(=O)N[C@H](C(=O)N1C[C@@H](C)C[C@H]1c1nc(Cl)c(-c2ccc(C#Cc3ccc(-c4[nH]c([C@@H]5C[C@H](C)CN5C(=O)[C@@H](NC(=O)OC)C5CCOCC5)nc4Cl)cc3)cc2)[nH]1)C1CCOCC1 [Example M12.7, dimethyl (1,2-ethynediylbis(4,1-phenylene(4-chloro-1H-imidazole-5,2-diyl)((2S,4S)-4-methyl-2,1-pyrrolidinediyl)((1S)-2-oxo-1-(tetrahydro-2H-pyran-4-yl)-2,1-ethanediyl)))biscarbamate] | 0.061 | 0.002 to 0.099
COC(=O)N[C@H](C(=O)N1[C@@H]2C[C@@H]2C[C@H]1c1nc(-c2ccc(/C=C/c3ccc(-c4c[nH]c([C@@H]5C[C@H]6C[C@H]6N5C(=O)[C@@H](NC(=O)OC)C5CCOCC5)n4)cc3)cc2)c[nH]1)C(C)C [Example M15, methyl ((1S)-2-((1R,3S,5R)-3-(4-(4-((E)-2-(4-(2-((1R,3S,5R)-2-((2S)-2-((methoxycarbonyl)amino)-3-methylbutanoyl)-2-azabicyclo[3.1.0]hex-3-yl)-1H-imidazol-4-yl)phenyl)vinyl)phenyl)-1H-imidazol-2-yl)-2-azabicyclo[3.1.0]hex-2-yl)-2-oxo-1-(tetrahydro-2H-pyran-4-yl)ethyl)carbamate] |  | 0.002 to 0.099
COC(=O)N[C@@H](C(=O)N1CC(F)(F)C[C@H]1c1ncc(-c2ccc(C#Cc3ccc(-c4cnc([C@@H]5CC(F)(F)CN5C(=O)[C@H](NC(=O)OC)C5CCOCC5)[nH]4)cc3)cc2)[nH]1)C1CCOCC1 [Example N4, dimethyl (ethyne-1,2-diylbis(4,1-phenylene-1H-imidazole-5,2-diyl((2S)-4,4-difluoropyrrolidine-2,1-diyl)((1R)-2-oxo-1-(tetrahydro-2H-pyran-4-yl)ethane-2,1-diyl)))biscarbamate] | 0.18 | 10 to 350
COC(=O)N[C@@H](C(=O)N1CCC[C@H]1c1nc(-c2ccc(CCc3ccc(-c4c[nH]c([C@@H]5CCCN5C(=O)[C@H](NC(=O)OC)c5ccccc5)n4)cc3)cc2)c[nH]1)c1ccccc1 [OL-11, dimethyl (1,2-ethanediylbis(4,1-phenylene-1H-imidazole-4,2-diyl(2S)-2,1-pyrrolidinediyl((1R)-2-oxo-1-phenyl-2,1-ethanediyl)))biscarbamate] |  | 0.002 to 0.099
CN(C)[C@@H](C(=O)N1CCC[C@H]1c1ncc(-c2ccc(Oc3cccc(-c4cnc([C@@H]5CCCN5C(=O)[C@@H](c5ccccc5)N(C)C)[nH]4)c3)cc2)[nH]1)c1ccccc1 [OL-4, (1R)-2-((2S)-2-(4-(3-(4-(2-((2S)-1-((2R)-2-(dimethylamino)-2-phenylacetyl)-2-pyrrolidinyl)-1H-imidazol-4-yl)phenoxy)phenyl)-1H-imidazol-2-yl)-1-pyrrolidinyl)-N,N-dimethyl-2-oxo-1-phenylethanamine] | 0.07 | 0.002 to 0.099
COC(=O)N[C@H](C(=O)N1[C@@H]2C[C@@H]2C[C@H]1c1nc(-c2ccc(/C=C/c3ccc(-c4c[nH]c([C@@H]5C[C@H]6C[C@H]6N5C(=O)[C@@H](NC(=O)OC)C5CCOCC5)n4)cc3)cc2)c[nH]1)C1CCOCC1 [Example M14, dimethyl ((E)-1,2-ethenediylbis(4,1-phenylene-1H-imidazole-4,2-diyl(1R,3S,5R)-2-azabicyclo[3.1.0]hexane-3,2-diyl((1S)-2-oxo-1-(tetrahydro-2H-pyran-4-yl)-2,1-ethanediyl)))biscarbamate] | 0.017 | 0.002 to 0.099
COC(=O)N[C@H](C(=O)N1[C@@H]2C[C@@H]2C[C@H]1c1ncc(-c2ccc(/C=C/c3ccc(-c4cnc([C@@H]5C[C@H]6C[C@H]6N5C(=O)[C@@H](NC(=O)OC)C(C)C)[nH]4)cc3)cc2)[nH]1)C(C)C [Example M13, methyl ((1S)-1-(((1R,3S,5R)-3-(4-(4-((E)-2-(4-(2-((1R,3S,5R)-2-((2S)-2-((methoxycarbonyl)amino)-3-methylbutanoyl)-2-azabicyclo[3.1.0]hex-3-yl)-1H-imidazol-4-yl)phenyl)vinyl)phenyl)-1H-imidazol-2-yl)-2-azabicyclo[3.1.0]hex-2-yl)carbonyl)-2-methylpropyl)carbamate] |  | 0.002 to 0.099
COC(=O)N[C@H](C(=O)N1[C@@H]2C[C@@H]2C[C@H]1c1nc2c([nH]1)-c1ccc(C#Cc3ccc4c(c3)CCc3nc([C@@H]5C[C@H]6C[C@H]6N5C(=O)[C@@H](NC(=O)OC)C(C)C)[nH]c3-4)cc1CC2)C(C)C [Example D-9, methyl ((1S)-1-(((1R,3S,5R)-3-(7-((2-((1R,3S,5R)-2-((2S)-2-((methoxycarbonyl)amino)-3-methylbutanoyl)-2-azabicyclo[3.1.0]hex-3-yl)-4,5-dihydro-1H-naphtho[1,2-d]imidazol-7-yl)ethynyl)-4,5-dihydro-1H-naphtho[1,2-d]imidazol-2-yl)-2-azabicyclo[3.1.0]hex-2-yl)carbonyl)-2-methylpropyl)carbamate] |  | 0.002 to 0.099
COC(=O)N[C@H](C(=O)N1[C@@H]2C[C@@H]2C[C@H]1c1nc(-c2ccc(C#Cc3ccc(-c4c[nH]c([C@@H]5C[C@H]6C[C@H]6N5C(=O)[C@@H](NC(=O)OC)C(C)C)n4)cc3)cc2)c[nH]1)C(C)C [Example M3, methyl ((1S)-1-(((1R,3S,5R)-3-(4-(4-((4-(2-((1R,3S,5R)-2-((2S)-2-((methoxycarbonyl)amino)-3-methylbutanoyl)-2-azabicyclo[3.1.0]hex-3-yl)-1H-imidazol-4-yl)phenyl)ethynyl)phenyl)-1H-imidazol-2-yl)-2-azabicyclo[3.1.0]hex-2-yl)carbonyl)-2-methylpropyl)carbamate] |  | 0.002 to 0.099
O=C([C@H](O)c1ccccc1)N1CCC[C@H]1c1nc(-c2ccc(COCc3ccc(-c4cnc([C@@H]5CCCN5C(=O)[C@H](O)c5ccccc5)[nH]4)cc3)cc2)c[nH]1 [OL-15, (1R)-2-((2S)-2-(4-(4-(((4-(2-((2S)-1-((2R)-2-hydroxy-2-phenylacetyl)-2-pyrrolidinyl)-1H-imidazol-5-yl)benzyl)oxy)methyl)phenyl)-1H-imidazol-2-yl)-1-pyrrolidinyl)-2-oxo-1-phenylethanol] | 1.1 | 1 to 9.9
CNC(=O)N[C@@H](C(=O)N1CCC[C@H]1c1nc(-c2ccc(COCc3cccc(-c4c[nH]c([C@@H]5CCCN5C(=O)[C@H](NC(=O)NC)c5ccccc5)n4)c3)cc2)c[nH]1)c1ccccc1 [OL-23, 1-methyl-3-((1R)-2-((2S)-2-(4-(3-(((4-(2-((2S)-1-((2R)-2-((methylcarbamoyl)amino)-2-phenylacetyl)-2-pyrrolidinyl)-1H-imidazol-4-yl)benzyl)oxy)methyl)phenyl)-1H-imidazol-2-yl)-1-pyrrolidinyl)-2-oxo-1-phenylethyl)urea] |  | 0.1 to 0.99
COC(=O)N[C@@H](C(=O)N1CCC[C@H]1c1nc(-c2ccc(C#Cc3ccc(-c4c[nH]c([C@@H]5CCCN5C(=O)[C@H](NC(=O)OC)c5ccccc5)n4)cc3)cc2)c[nH]1)c1ccccc1 [Example M2, dimethyl (1,2-ethynediylbis(4,1-phenylene-1H-imidazole-4,2-diyl(2S)-2,1-pyrrolidinediyl((1R)-2-oxo-1-phenyl-2,1-ethanediyl)))biscarbamate] | 0.24 | 0.1 to 0.99
